Data published in the NIST ThermoML archive (doi:10.1016/j.jct.2012.09.012).

Assay: xn = mol fraction of the nth substance listed
Conditions: Liquid, Vibrating tube method

CC1=CC[C@H]2C[C@@H]1C2(C)C [(S)-2-pinene] + C=C1CCC2CC1C2(C)C
mass density [kg/m3]
Conditions	x1 = 0.1044	x1 = 0.1926	x1 = 0.3036	x1 = 0.3949	x1 = 0.502	x1 = 0.6052	x1 = 0.7022	x1 = 0.7983	x1 = 0.9028	x1 = 1
343.15 K, 30000 kPa	–	–	–	–	–	848.5	847.2	846.2	844.9	843.8
343.15 K, 35000 kPa	857.7	856.6	855.5	854.5	853.3	852.2	851	850	848.7	847.7
343.15 K, 40000 kPa	861.3	860.2	859.1	858.1	857	855.9	854.7	853.7	852.4	851.4
358.15 K, 20000 kPa	835.9	834.6	833.3	832.2	831	829.8	828.5	827.3	826.1	825
358.15 K, 25000 kPa	839.8	838.6	837.4	836.3	835	833.9	832.7	831.5	830.3	829.2
358.15 K, 30000 kPa	843.7	842.5	841.3	840.3	839	838	836.7	835.6	834.4	833.3
358.15 K, 35000 kPa	847.6	846.4	845.2	844.2	843	841.8	840.7	839.6	838.4	837.4
358.15 K, 40000 kPa	851.5	850.4	849.1	848.2	847.1	846	844.8	843.8	842.6	841.5
